The subject of data set [1] is dopamine transporter (DAT) / serotonin transporter (SERT). Conditions: cited from earlier work.
The subject of the next data set is serotonin (5-HT) release. Description: Serotonin (5-HT) release. Conditions: data on file.
The conditions of data set [2]: receptor studies and limited pre-clinical evidence; cited from earlier work.
In another data set the test system is humans. Conditions: cited from earlier work.
The subject of data set [3] is healthy subjects. Conditions: cited from earlier work.
The subject of data set [4] is healthy subjects. Conditions: cited from earlier work; for duration of self-reported effects: MDA 1.4 mg/kg orally, indirect comparison with MDMA from different subjects and studies.
The next data set has as its target 5-HT2A receptor (Homo sapiens, UniProt P28223).
For data set [5] the following is noted: cited from earlier work; for Tmax (plasma): after administration of 125 mg MDMA to healthy subjects; for elimination half-life: human plasma.
[6] abbreviates: relative dopamine over serotonin transporter inhibition potency ratio, literature values.
Where [7] appears, read: vs d-amphetamine, equivalent doses.

Where two headings read alike, the source gives them in different places.

Chain of 5-HT2A receptor (P28223 whole entry): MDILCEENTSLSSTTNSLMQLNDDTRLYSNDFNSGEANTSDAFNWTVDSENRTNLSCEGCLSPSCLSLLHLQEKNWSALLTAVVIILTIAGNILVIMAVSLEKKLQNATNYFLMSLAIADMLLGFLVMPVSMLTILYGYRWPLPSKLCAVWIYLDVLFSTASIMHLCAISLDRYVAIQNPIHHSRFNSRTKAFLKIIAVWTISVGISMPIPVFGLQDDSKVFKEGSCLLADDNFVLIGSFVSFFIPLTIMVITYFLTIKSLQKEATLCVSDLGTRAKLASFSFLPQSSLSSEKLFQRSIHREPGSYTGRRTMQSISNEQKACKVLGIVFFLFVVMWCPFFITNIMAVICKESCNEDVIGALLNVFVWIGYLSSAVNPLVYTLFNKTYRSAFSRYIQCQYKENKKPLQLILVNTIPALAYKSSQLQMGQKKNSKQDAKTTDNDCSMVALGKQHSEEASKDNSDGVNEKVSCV

On to `CC(N)Cc1ccc2ccoc2c1` (stereo not shown) [6-APB, 6-(2-aminopropyl)-benzofuran], for which the DAT/SERT ratio in data set [1] (setting [6]) was 0.29.
As for `CC(N)Cc1cc(F)c2c(c1)OCO2` (stereo not shown) [5F-MDA], the 5-HT release entry in the data set on serotonin (5-HT) release was “release 5-HT”.
`CC(N)Cc1ccc2occc2c1` (stereo not shown) [5-APB, 5-(2-aminopropyl)-benzofuran]: the DAT/SERT ratio in data set [1] (setting [6]) is 0.05.
Consider `CN[C@H](C)Cc1ccc2c(c1)OCO2` [R(-)-MDMA], for which, in data set [2], the “efficacy as a releaser of dopamine” value is listed as “low efficacy” and the hyperthermia entry is recorded as “does not produce hyperthermia”.
For the molecule `CC(N)Cc1ccc2c(c1F)OCO2` (stereo not shown) [2F-MDA], the 5-HT release result with serotonin (5-HT) release is “release 5-HT”.
Consider `CC(N)Cc1cc2c(cc1F)OCO2` (stereo not shown) [6F-MDA], for which the 5-HT release result in the data set on serotonin (5-HT) release is “release 5-HT”.
Turning to `C[C@@H](Cc1ccccc1)NC(=O)[C@@H](N)CCCCN` [lisdexamfetamine], in the data set on humans (100 mg lisdexamfetamine oral vs d-amphetamine, FIG. 9), the blood pressure increase entry was “increased more slowly and later”. In addition, the ratings of liking entry in the data set on humans (oral, vs equivalent dose of d-amphetamine, FIG. 8) is reported as “lower”. For the same molecule, the “maximal effect (Emax) or area under the effect-time curve (AUEC)” value in the data set with healthy subjects [3] (lisdexamfetamine vs d-amphetamine) was “no differences”. Moreover, in the data set with healthy subjects [3] (setting [7]), the “maximal concentrations of amphetamine” value is listed as “no differences”; the “onset and peak times of the amphetamine concentration-time curve” value was “longer”. For the same molecule, in the data set with healthy subjects [3] (vs d-amphetamine), the “Tonset of blood pressure-time curve” value is recorded as “significantly longer”.
Consider `CCC(Cc1ccc2c(c1)OCO2)NC` (stereo not shown) [MBDB, 1-(1,3-benzodioxol-5-yl)-methyl-2-butanamine], for which, in data set [1] (setting [6]), the DAT/SERT ratio was 0.09.
Regarding `CNC(C)Cc1ccc2c(c1)OCO2` (stereo not shown) [MDMA, 3,4-Methylenedioxymethamphetamine], the “duration of self-reported effects” value in the data set with healthy subjects [4] is ≤ 6 h. Also, the EC50 (usually the concentration that produces a half-maximal response) on 5-HT2A receptor (Rickli et al., 2015b; read-out: EC50 of 5-HT2A receptor activation; cited from earlier work) was 6.1 µM. Besides, the DAT/SERT ratio in data set [1] was 0.08. In data set [5], the Tmax (plasma) was 2.6 h and the elimination half-life was 7 to 10 h.
Take `CCC(N)Cc1ccc2c(c1)OCO2` (stereo not shown) [BDB, 1-(1,3-benzodioxol-5-yl)-2-aminobutane]: the 5-HT release entry in the data set with serotonin (5-HT) release is reported as “release 5-HT”.
Turning to `NC1Cc2cc3c(cc2C1)OCO3` [MDAI, 5,6-methylenedioxy-2-aminoindane], in data set [1], the DAT/SERT ratio is given as 0.2.
As for `CC(N)Cc1ccc2c(c1)OCO2` (stereo not shown) [MDA, 3,4-methylenedioxyamphetamine], the “duration of self-reported effects” value with healthy subjects [4] is “up to 8 hours”. Besides, the “perceptual changes on the 5-Dimensions of Altered States of Consciousness Scale” value in the data set on healthy subjects [4] (MDA vs MDMA, indirect comparison) was “greater perceptual changes than MDMA”. In addition, the EC50 at 5-HT2A receptor (read-out: EC50 of 5-HT2A receptor activation; Rickli et al., 2015b; cited from earlier work) is 0.63 µM. Besides, the DAT/SERT ratio in data set [1] was 0.24. Moreover, in data set [5], the Tmax (plasma) is 4.7 h and the elimination half-life is 10 to 16 h. Besides, the “Peak plasma concentration of MDA relative to that of MDMA” value in data set [5] (after administration of MDMA) is on record as 7-10%.

(Values after US20230233688A1, “MDMA PRODRUGS TO ASSIST PSYCHOTHERAPY” (priority 2021, published 2023).)
